Source: US20100292165A1, “Treatment of an intestinal adenoma and/or adenocarcinoma by inhibition of notch pathway activation” (Hubrecht Laboratorium a corporation of the Netherlands, priority 2004, published 2010)
Entries after “also recorded” stand apart in the source; their conditions may differ.

How the values were obtained:
γ-secretase = experiment: IC50 of γ-secretase inhibitors, assay not stated
Source text: DAPT, DBZ or BZ are both effective in inducing the formation of a post-mitotic cell from an adenoma and/or adenocarcinoma cell and these compounds thus have a similar effect in a method according to the invention.

adenomas of APC^min mice = experiment: Oral DAPT treatment of APC^min mice, histology of intestinal adenomas; format: in vivo, mouse; details: DAPT 100 mg/kg orally once daily
Method: The intestinal tract was dissected as a whole and flushed gently with cold PBS to remove any fecal content followed by a flush with Formalin. The small intestine was rolled up into a compact circle and fixed in Formalin at room temperature for 16 hours. The tissues were sectioned (2 to 6 μm). Following dewaxing and hydration, sections were pretreated with peroxidase blocking buffer (120 mM Na2HPO4, 43 mM citric acid, 30 mM NaN3, 0.2% H2O2; pH 5.8) for 15 minutes at room temperature. Antigen retrieval was performed by boiling samples in Na-citrate buffer (10 mM, pH 6.0). After 20 minutes, the boiling pan was allowed to slowly cool down to room temperature. Incubation of antibodies was performed in BSA in PBS overnight at 4° C. and at room temperature for one hour for Lysozyme, Ki67. In all cases, the Envision^+ kit (DAKO) was used as a secondary reagent. The incubation time was 30 minutes. Stainings were developed using DAB. Slides were then counterstained with hematoxylin and mounted. The probes used for in situ hybridization are as described (Schroder et al. 2002). Following dewaxing and hydration, tissues were incubated for five minutes in Alcian Blue (1% in 0.5% acetic acid). Subsequently washed in water, one minute incubated in Neutral Red. Quickly dehydrated, washed in Xylene and mounted with Pertex. The eight-week-old APC^min mice were treated with two different, orally deliverable γ-secretase inhibitors (DAPT: 100 mg/kg in corn oil) for 2.5, 6.5 or 15 days, after which their intestines were isolated and examined histologically. We then asked whether Notch pathway activity was essential for the maintenance of the undifferentiated, proliferative phenotype of adenoma cells. We elected to inhibit the Notch pathway pharmacologically through the use of the γ-secretase inhibitor DAPT. We then initiated treatment of fifteen-week-old APC^min mice that at this age carry 30 to 60 macroscopically detectable adenomas or polyps in the small intestine and one to three adenomas in the colon. The mice were treated with DAPT for up to 15 days, after which their intestines were examined histologically. Based on a pilot experiment and published treatment regimens, the APC^min mice were orally dosed once daily with DAPT at 100 mg/kg in maize oil.

IC50 (γ-secretase): 10 nM
SMILES: CC(NC(=O)Cc1cc(F)cc(F)c1)C(=O)NC(C(=O)OC(C)(C)C)c1ccccc1 [DAPT, N—[N-(3,5-difluorophenylacetyl)-L-alanyl]-S-phenylglycine t-butyl ester]
effects in adenomas (adenomas of APC^min mice; day 2.5 or day 6.5 of treatment): No consistent effects
Alcian Blue-positive goblet cells in adenomas (adenomas of APC^min mice; day 15): increase in goblet cells; also recorded: Large foci of Alcian Blue-positive goblet cells had appeared
proliferation in adjacent, normal crypts (adenomas of APC^min mice; day 15): unaffected
numbers of proliferating, Ki67-positive cells in adenomas (adenomas of APC^min mice; day 15, colon and small intestinal adenomas): strongly diminished; also recorded: dramatically decreased; also recorded: halted
